From PMC10307885, “A Phase 1/2 trial of SRA737 (a Chk1 inhibitor) administered orally in patients with advanced cancer” (British Journal of Cancer, 2023)

Assays:
[1] = tested on: patients with advanced solid tumours; assay: Cardiac safety: ECG (QTcF), troponin, echocardiogram; type: in vivo, human
Method: Cardiac assessments included centrally-assessed serial ECGs in Cycle 1 used for evaluation of QTc. In addition, locally-read ECGs for safety assessment were also available for central assessment where clinically indicated. Troponin T or I assessments and echocardiogram were locally assessed.
Safety and response variables were summarized using descriptive statistics and PK parameters were determined using non-compartmental methods. A concentration-effect model was used to evaluate the relationship between plasma SRA737 concentrations and the mean change from baseline in QT interval corrected for heart rate using Fridericia’s formula (QTcF) in time-matched ECG measurements and PK samples collected on Day −7 to Day −4 and during Cycle 1.

[2] = tested on: patients with advanced cancer; settings: in combination with low-dose gemcitabine; anogenital, cervical, high-grade serous ovarian, rectal and small cell lung cancer; cited from earlier work

N#Cc1cnc(Nc2cc(NC[C@H]3CNCCO3)c(C(F)(F)F)cn2)cn1 [SRA737, (R)-5-((4-((morpholin-2-ylmethyl)amino)-5-(trifluoromethyl)pyridin-2-yl)amino)pyr azine-2-carbonitrile]
largest LS mean ΔQTcF ([1]; 800 mg QD, 2 h post dose on Cycle 1 Day 22, 90% confidence interval 11.53 to 22.13): 16.8 ms | cases of acute coronary syndrome (cardiac SAE) ([1]; 800 mg SRA737): 1 case | cases of asymptomatic myocardial infarction (cardiac SAE) ([1]; 800 mg SRA737): 1 case | cases of asymptomatic QT prolongation (cardiac SAE) ([1]; 1000 mg SRA737): 1 case | cases of cardiomyopathy (cardiac SAE) ([1]; 1000 mg SRA737): 1 case | cardiac serious adverse events evaluated to be possibly related to SRA737 ([1]; all doses): Four | subjects with treatment-emergent QTcF values >500 ms or ΔQTcF of >60 ms ([1]; central ECG monitoring): no individual subjects | patients with > 10% absolute drop from baseline resulting in abnormal left ventricular ejection fraction ([1]; echocardiogram data, 83 evaluable patients, other than cardiomyopathy and myocardial infarction cases): no additional patients | drop of left ventricular ejection fraction, one patient ([1]; echocardiogram performed outside the study): from 65 to 20–25% | effects on heart rate, PR interval, or QRS duration ([1]; studied doses): no clinically relevant effects | proarrhythmic potential ([1]; therapeutic doses): no indication that SRA737 is proarrhythmic | RECIST tumour responses [2]: RECIST partial tumour responses were observed
